Test results from patent US20180327367A1, “MACROCYCLIC BROAD SPECTRUM ANTIBIOTICS” (priority 2015, published 2018).
≈ marks a conversion by molar mass, not a printed value. Read-outs that look alike come from different tables or passages of the source.

Tests used:
[1] = test system: Methicillin Resistant Staphylococcus aureus strain USA 300, NRS384; assay: Minimum inhibitory concentration, broth micro-dilution (CLSI), S. aureus; format: cell-based; conditions: Staphylococcus aureus, MRSA / NRS 384 / USA300, 22 h, 35° C., 22 hours
How it was run: (§1)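 Ten-point 2-fold series began at 4 μg/mL in protocol 2 and 0.5 μg/mL in protocol 3, in cation-adjusted MHB plus 0.002% Tween-80. Bacteria added to OD600 0.0005 final and incubated at 35° C for 22 hours per CLSI microdilution.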

[2] = test system: Escherichia coli MC4100 harboring the IMP4213 (E. coli IMP); assay: microbe, parasite or virus in culture; format: cell-based; conditions: Escherichia coli, 22 h, read-out: MIC (μg/mL) E. coli IMP, E. coli MC4100 IMP4213, increased outer-membrane permeability; 35° C., 22 hours
How it was run: as §1

[3] = test system: Escherichia coli ATCC 25922; assay: Minimum inhibitory concentration, broth micro-dilution (CLSI), E. coli; format: cell-based; conditions: Escherichia coli, ATCC25922, 22 h, 35° C., 22 hours
[4] = target: T1, SpsB (Staphylococcus aureus signal peptidase) (Staphylococcus aureus, UniProt P0A070); assay: cell-based; format: biochemical; conditions: SpsB IC50, whole-cell S. aureus (USA300 background, overexpressing SpsB) as SpsB source; fluorogenic peptide substrate, kinetic read 30 min
T1 construct: This assay uses a suspension of Staphylococcus aureus cells as a source of SpsB instead of recombinant SpsB protein; endogenous in cells; host or cells: S. aureus, USA300 background, overexpressing SpsB (whole-cell suspension from frozen pellets)
T1 sequence (P0A070 whole entry): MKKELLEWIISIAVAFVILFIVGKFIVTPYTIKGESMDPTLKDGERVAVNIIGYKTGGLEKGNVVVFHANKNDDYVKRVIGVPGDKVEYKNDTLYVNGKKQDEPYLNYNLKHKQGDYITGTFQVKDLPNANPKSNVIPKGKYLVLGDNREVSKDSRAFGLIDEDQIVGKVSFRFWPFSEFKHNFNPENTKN
How it was run: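 Cleavage of an internally quenched (Dabcyl)βAla-KPAKAAE(Edans) peptide, added as 20 μM solution mixed 1:1 with cells, was followed for 30 min at 340/490 nm. SpsB came from a suspension of SpsB-overexpressing USA300 S. aureus in Tween-80-containing PBS buffer. Slopes plotted against 3-fold compound dilutions gave IC50.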

[5] = read-out: MIC (μg/mL) S. aureus, MRSA USA 300 NRS384
[6] = read-out: MIC (μg/mL) E. coli, E. coli ATCC 25922
[7] = MRSA USA 300 NRS384, read-out: MIC (μg/mL) S. aureus
[8] = E. coli ATCC 25922, read-out: MIC (μg/mL) E. coli

CCCCCCCCCC(=O)N[C@H](CCC)C(=O)N[C@@H](CCN)C(=O)N(C)[C@@H]1C(=O)N[C@@H](C)C(=O)N[C@H](C(=O)NCC#N)Cc2ccc(OCCN)c(c2)-c2cc1ccc2OCCN [Compound 353]
MIC [1, 5]: 0.047 µg/mL (≈ 0.0527 µM) | MIC [2]: 0.016 µg/mL (≈ 0.018 µM) | MIC [3, 6]: 2 µg/mL (≈ 2.24 µM) | IC50 [4]: 820 pM

CCCCCCCCCC(=O)N[C@H](C)C(=O)NCC(=O)N[C@@H](CCN)C(=O)N(C)[C@@H]1C(=O)N[C@@H](C)C(=O)N[C@H](C(=O)NCC#N)Cc2ccc(OCCN)c(c2)-c2cc1ccc2OCCN [Compound 366]
MIC [1, 5]: 0.25 µg/mL (≈ 0.272 µM) | MIC [2]: 0.38 µg/mL (≈ 0.413 µM) | MIC [3, 6]: 48 µg/mL (≈ 52.2 µM) | IC50 [4]: 640 pM

Cc1cc(-c2ccc(C(C)C)cc2)ccc1C(=O)N[C@@H](CCN)C(=O)N(C)[C@@H]1C(=O)N[C@@H](C)C(=O)N[C@H](C(=O)NCC#N)Cc2ccc(OCCN)c(c2)-c2cc1ccc2OCCN [Compound 145]
MIC [1, 7]: 0.047 µg/mL (≈ 0.0538 µM) | MIC [2]: 0.012 µg/mL (≈ 0.0137 µM) | MIC [3, 8]: 0.16 µg/mL (≈ 0.183 µM) | IC50 [4]: 590 pM

CCCCCCCCCCNCC(=O)N(C)[C@@H]1C(=O)N[C@@H](C)C(=O)N[C@H](C(=O)NCC#N)Cc2ccc(OCCN)c(c2)-c2cc1ccc2OCCN [Compound 132]
MIC [1, 5]: 0.25 µg/mL (≈ 0.34 µM) | MIC [2]: 3 µg/mL (≈ 4.08 µM) | MIC [3, 6]: > 64 µg/mL | IC50 [4]: 710 pM

CCCCCCCCc1ccc(C(=O)N[C@@H](CCN)C(=O)N(C)[C@@H]2C(=O)N[C@@H](C)C(=O)N[C@H](C(=O)NCC#N)Cc3ccc(OCCN)c(c3)-c3cc2ccc3OCCN)c(OC)c1 [Compound 209]
MIC [1, 7]: 0.19 µg/mL (≈ 0.215 µM) | MIC [2]: 0.094 µg/mL (≈ 0.106 µM) | MIC [3, 8]: 2 µg/mL (≈ 2.26 µM) | IC50 [4]: 920 pM

Cc1nn(-c2ccc(CC(C)C)cc2)cc1C(=O)N[C@@H](CCN)C(=O)N(C)[C@@H]1C(=O)N[C@@H](C)C(=O)N[C@H](C(=O)NCC#N)Cc2ccc(OCCN)c(c2)-c2cc1ccc2OCCN [Compound 443]
MIC [1, 7]: 0.094 µg/mL (≈ 0.107 µM) | MIC [2]: 0.047 µg/mL (≈ 0.0535 µM) | MIC [3, 8]: 4 µg/mL (≈ 4.56 µM) | IC50 [4]: 900 pM

CCCCCCCc1cc(C)c(C(=O)N[C@@H](CCN)C(=O)N(C)[C@@H]2C(=O)N[C@@H](C)C(=O)N[C@H](C(=O)NCC#N)Cc3ccc(OCCN)c(c3)-c3cc2ccc3OCCN)cn1 [Compound 313]
MIC [1, 7]: 0.031 µg/mL (≈ 0.0363 µM) | MIC [2]: 0.0078 µg/mL (≈ 0.00912 µM) | MIC [3, 8]: 0.5 µg/mL (≈ 0.585 µM) | IC50 [4]: 680 pM

CCCCC1CCC(C2CCC(C(=O)N[C@@H](CCN)C(=O)N(C)[C@@H]3C(=O)N[C@@H](C)C(=O)N[C@H](C(=O)NCC#N)Cc4ccc(OCCN)c(c4)-c4cc3ccc4OCCN)CC2)CC1 (some centres unmarked) [Compound 426]
MIC [1, 7]: 0.063 µg/mL (≈ 0.0711 µM) | MIC [2]: < 0.0039 µg/mL | MIC [3, 8]: 0.19 µg/mL (≈ 0.214 µM) | IC50 [4]: 1200 pM

COc1ccc(-c2ccc(C(=O)N[C@@H](CCCCN)C(=O)N(C)[C@@H]3C(=O)N[C@@H](C)C(=O)N[C@H](C(=O)NCC#N)Cc4ccc(OCCN)c(c4)-c4cc3ccc4OCCN)cc2)cc1OC [Compound 109]
MIC [1, 7]: 2 µg/mL (≈ 2.21 µM) | MIC [2]: 1 µg/mL (≈ 1.1 µM) | MIC [3, 8]: > 64 µg/mL | IC50 [4]: 7500 pM

Cc1cc(OCC2(C)CCCCC2)ccc1C(=O)N[C@@H](CCN)C(=O)N(C)[C@@H]1C(=O)N[C@@H](C)C(=O)N[C@H](C(=O)NCC#N)Cc2ccc(OCCN)c(c2)-c2cc1ccc2OCCN [Compound 289]
MIC [1, 7]: 0.031 µg/mL (≈ 0.0351 µM) | MIC [2]: 0.0078 µg/mL (≈ 0.00884 µM) | MIC [3, 8]: 0.25 µg/mL (≈ 0.283 µM) | IC50 [4]: 930 pM

Cc1cc(CC(C)C)ccc1C(=O)N[C@@H](CCN)C(=O)N(C)[C@@H]1C(=O)N[C@@H](C)C(=O)N[C@H](C(=O)NCC#N)Cc2ccc(OCCN)c(c2)-c2cc1ccc2OCCN [Compound 218]
MIC [1, 7]: 0.25 µg/mL (≈ 0.308 µM) | MIC [2]: 0.031 µg/mL (≈ 0.0382 µM) | MIC [3, 8]: 2 µg/mL (≈ 2.46 µM) | IC50 [4]: 880 pM

Cc1cc(-c2ccc(CC(C)C)cc2)cnc1C(=O)N[C@@H](CCN)C(=O)N(C)[C@@H]1C(=O)N[C@@H](C)C(=O)N[C@H](C(=O)NCC#N)Cc2ccc(OCCN)c(c2)-c2cc1ccc2OCCN [Compound 168]
MIC [1, 7]: 0.063 µg/mL (≈ 0.0709 µM) | MIC [2]: 0.031 µg/mL (≈ 0.0349 µM) | MIC [3, 8]: 0.75 µg/mL (≈ 0.844 µM) | IC50 [4]: 800 pM

CCCCCCCCCCCC(=O)N[C@@H](C)C(=O)N(C)[C@@H]1C(=O)N[C@@H](C)C(=O)N[C@H](C(=O)NCC#N)Cc2ccc(OCCN)c(c2)-c2cc1ccc2OCCN [Compound 241]
MIC [1, 7]: 0.13 µg/mL (≈ 0.164 µM) | MIC [2]: 0.063 µg/mL (≈ 0.0796 µM) | MIC [3, 8]: 6 µg/mL (≈ 7.59 µM) | IC50 [4]: 1400 pM

Cc1nc(Oc2ccc(CC(C)C)cc2)ncc1C(=O)N[C@@H](CCN)C(=O)N(C)[C@@H]1C(=O)N[C@@H](C)C(=O)N[C@H](C(=O)NCC#N)Cc2ccc(OCCN)c(c2)-c2cc1ccc2OCCN [Compound 304]
MIC [1, 7]: 0.047 µg/mL (≈ 0.0519 µM) | MIC [2]: 0.016 µg/mL (≈ 0.0177 µM) | MIC [3, 8]: 1 µg/mL (≈ 1.1 µM) | IC50 [4]: 680 pM
